Laboratory results from PMC4242082, “Mechanistic determinants of the directionality and energetics of active export by a heterodimeric ABC transporter” (Nature Communications, 2014).
Positions count from the first letter of the chain named. Read-outs that look alike come from different tables or passages of the source.

Legend:
[1] = target: T1, rat TAP1-NBD (Rattus norvegicus, UniProt P36370, D651A); assay: fluorescence polarization competition with ATP-Bodipy; format: binding
T1 construct: monomer-homodimer equilibrium
T1 sequence (P36370 465-725 D651A): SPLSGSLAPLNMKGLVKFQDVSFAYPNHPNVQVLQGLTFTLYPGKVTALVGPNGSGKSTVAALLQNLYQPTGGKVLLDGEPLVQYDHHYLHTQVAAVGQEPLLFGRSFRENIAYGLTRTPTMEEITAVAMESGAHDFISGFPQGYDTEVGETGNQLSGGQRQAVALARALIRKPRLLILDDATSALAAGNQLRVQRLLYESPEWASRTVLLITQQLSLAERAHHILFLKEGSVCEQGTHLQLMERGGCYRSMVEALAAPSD
From the text: (§1) fluorescence polarization competition with ATP-Bodipy on rat TAP1-NBD | affinities for ATP and ADP of isolated wt and D-loop (D651A) mutant rat TAP1-NBD

[2] = target: T2, rat TAP1-NBD (Rattus norvegicus, UniProt P36370); assay: as above; format: binding
T2 construct: monomer-homodimer equilibrium
T2 sequence (P36370 465-725): T1 sequence (P36370 465-725 D651A) with A187D
From the text: as §1

[3] = target: T3, TAP (TAP1/TAP2 complex; wt TAP) (Homo sapiens, UniProt Q03518+Q03519); assay: biochemical; design: species or system Sf9; ATP-agarose competition binding assay with TAP-containing Sf9 membranes; conditions: read-out: ATP binding IC50
T3 construct: full-length heterodimer from Sf9 insect cells (baculovirus), purified and reconstituted in proteoliposomes, or in membranes
T3 sequence (Q03518 1-748): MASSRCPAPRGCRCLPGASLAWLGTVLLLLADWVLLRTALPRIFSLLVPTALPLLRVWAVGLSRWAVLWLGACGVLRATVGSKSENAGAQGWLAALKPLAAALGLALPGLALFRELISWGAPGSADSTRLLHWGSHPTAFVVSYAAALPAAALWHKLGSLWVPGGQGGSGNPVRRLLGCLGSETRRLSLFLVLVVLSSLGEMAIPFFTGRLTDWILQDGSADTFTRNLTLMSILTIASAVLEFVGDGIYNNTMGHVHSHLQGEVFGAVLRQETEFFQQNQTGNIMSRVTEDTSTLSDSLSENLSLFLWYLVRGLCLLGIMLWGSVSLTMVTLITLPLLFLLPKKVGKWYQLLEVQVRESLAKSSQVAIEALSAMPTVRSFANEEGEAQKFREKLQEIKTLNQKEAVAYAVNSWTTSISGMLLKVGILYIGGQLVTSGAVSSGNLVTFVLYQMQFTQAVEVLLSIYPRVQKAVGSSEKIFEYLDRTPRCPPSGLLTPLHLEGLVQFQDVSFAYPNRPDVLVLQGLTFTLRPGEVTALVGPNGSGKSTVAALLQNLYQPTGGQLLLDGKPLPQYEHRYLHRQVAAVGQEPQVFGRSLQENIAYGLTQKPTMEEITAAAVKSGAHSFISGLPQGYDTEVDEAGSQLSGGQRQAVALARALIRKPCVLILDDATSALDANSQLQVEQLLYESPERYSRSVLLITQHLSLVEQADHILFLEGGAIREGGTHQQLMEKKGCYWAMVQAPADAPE
T3 sequence (Q03519 1-686): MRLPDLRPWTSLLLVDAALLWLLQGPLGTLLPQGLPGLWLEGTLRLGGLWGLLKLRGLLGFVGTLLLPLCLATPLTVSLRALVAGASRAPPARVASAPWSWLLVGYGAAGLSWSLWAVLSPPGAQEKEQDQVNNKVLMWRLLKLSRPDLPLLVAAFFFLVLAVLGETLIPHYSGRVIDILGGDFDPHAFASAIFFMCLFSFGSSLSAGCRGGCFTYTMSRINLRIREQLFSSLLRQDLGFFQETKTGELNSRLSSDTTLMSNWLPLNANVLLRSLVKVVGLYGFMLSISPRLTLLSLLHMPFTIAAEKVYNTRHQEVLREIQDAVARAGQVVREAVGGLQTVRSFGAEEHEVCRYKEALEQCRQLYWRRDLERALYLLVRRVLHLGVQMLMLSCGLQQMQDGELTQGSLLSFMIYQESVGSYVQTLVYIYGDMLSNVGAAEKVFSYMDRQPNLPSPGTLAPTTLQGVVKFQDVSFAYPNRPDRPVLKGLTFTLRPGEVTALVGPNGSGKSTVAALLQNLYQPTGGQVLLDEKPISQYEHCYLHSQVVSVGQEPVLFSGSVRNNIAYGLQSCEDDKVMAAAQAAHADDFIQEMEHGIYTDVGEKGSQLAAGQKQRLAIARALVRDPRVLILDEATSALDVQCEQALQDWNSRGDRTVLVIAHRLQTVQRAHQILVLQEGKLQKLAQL

[4] = target: T3, TAP (TAP1/TAP2 complex; wt TAP); assay: ATP binding affinity; conditions: type of constant not stated in main text
[5] = target: T2, rat TAP1-NBD; assay: biochemical; design: fluorescence polarization competition of unlabelled nucleotide against 1 uM ATP-Bodipy, TAP1-NBD
Description: Nucleotide-stripped TAP1-NBD samples were re-concentrated to ~100 μM, and used to make a series of eight twofold dilutions in assay buffer (20 mM Tris, pH 8.0, 50 mM NaCl, 1 mM dithiothreitol) with 1 μM ATP-Bodipy (Invitrogen). A background control contained no protein. For competitive binding experiments, NBDs (25 μM final) were mixed with 1 μM ATP-Bodipy and a series of ten twofold dilutions of unlabelled nucleotide, with samples with no labelled nucleotide serving as background control. Fluorescence polarization was measured in FlexStation 3 with excitation at 488 nm. All samples were run two or three times in triplicates. Data were analysed with Origin (OriginLab Corp.). Binding affinities of unlabelled nucleotides (Kis) were obtained using Ki=IC50/([L]/Kd+1). To explore the molecular mechanism of antigen translocation, wt TAP and the D674A/wt complex were purified and functionally reconstituted in proteoliposomes. […] Furthermore, the Michaelis–Menten kinetics for peptide transport by wt TAP and D674A/wt are equal (Fig. 2c, Supplementary Fig. 2c and Supplementary Table 3), confirming that the affinity for ATP and peptides is not affected by the D-loop substitution.

[6] = target: T4, rat TAP1-NBD (Rattus norvegicus, UniProt P36370, D645N/D651A); assay: X-ray crystal structure, […] Å; format: binding; conditions: crystals pH 8.0; canonical NBD dimer with two ATP
T4 construct: monomer-homodimer equilibrium
T4 sequence (P36370 465-725 D645N/D651A): T1 sequence (P36370 465-725 D651A) with D181N

[7] = target: T2, rat TAP1-NBD; assay: fluorescence polarization, direct titration; format: binding; conditions: pH 8.0, 20 mM Tris, 50 mM NaCl, 1 mM dithiothreitol; labelled compound
From the text: fluorescence polarization, direct titration on rat TAP1-NBD | series of eight twofold dilutions in assay buffer

[8] = target: T5, TAP with tapasin-TAP2 fusion (Tsn-TAP) (Homo sapiens, UniProt Q03518+Q03519); assay: competition with 8-azido-[α-32P]ATP photo-crosslinking; format: binding; conditions: 200-fold excess, 1 mM MgCl2, pH 7.4, 4 °C
T5 construct: gene TAP1; purified heterodimer from Sf9 cells in digitonin; TAP2 fused N-terminally to tapasin (TAPBP) only to separate the subunits on the gel
T5 sequence (Q03518 1-748): T3 sequence (Q03518 1-748)
T5 sequence (Q03519 1-686): T3 sequence (Q03519 1-686)
T5 sequence (O15533 21-448 partner): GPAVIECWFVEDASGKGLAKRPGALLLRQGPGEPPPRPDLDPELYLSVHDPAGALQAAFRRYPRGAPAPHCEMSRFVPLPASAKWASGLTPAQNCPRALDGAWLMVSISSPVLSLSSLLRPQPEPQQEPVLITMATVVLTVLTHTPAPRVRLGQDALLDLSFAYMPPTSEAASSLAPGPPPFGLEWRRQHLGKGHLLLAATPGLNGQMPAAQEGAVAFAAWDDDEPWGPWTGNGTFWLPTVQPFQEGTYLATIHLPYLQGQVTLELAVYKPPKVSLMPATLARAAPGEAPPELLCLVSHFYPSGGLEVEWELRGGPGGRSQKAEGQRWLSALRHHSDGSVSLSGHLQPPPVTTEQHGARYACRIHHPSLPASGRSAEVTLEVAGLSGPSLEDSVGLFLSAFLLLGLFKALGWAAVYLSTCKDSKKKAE

Compound | Ki [1] [µM] | Ki [2] [µM] | IC50 [3] [µM] | affinity [4] | IC50 ([5]; read-out: IC50 (µM) ATP) [µM] | X-ray crystal structure, 2.65 Å [6] | Kd [7] [µM] | IC50 ([5]; read-out: IC50 (µM) ADP) [µM] | competition with 8-azido-[α-32P]ATP photo-crosslinking [8]
Nc1ncnc2c1ncn2[C@@H]1O[C@H](COP(=O)(O)OP(=O)(O)OP(=O)(O)O)[C@@H](O)[C@H]1O [ATP] | 148 ± 9 | 119 ± 13 | 10 ± 1 | all mutants displayed similar affinity for peptides and ATP as compared with wt TAP | 139 ± 30 | the two ATPs and their binding sites are essentially unaffected by this structural re-organization | – | – | –
ATP-Bodipy | – | – | – | – | – | – | 6.1 ± 1.7 | – | –
Nc1ncnc2c1ncn2[C@@H]1O[C@H](COP(=O)(O)OP(=O)(O)O)[C@@H](O)[C@H]1O [ADP] | 59 ± 3 | 59 ± 2 | – | – | – | – | – | 69 ± 14 | wt and D674A/wt TAP showed the same binding properties for ATP, ADP (Fig. 2b)
